This is an account of results in patent US9068949B2, “System and method for multiplex spectroscopic imaging” (Purdue Research Foundation, priority 2013, dated 2015).

Structures are written as SMILES.

In the series the test system is intact mouse ear. Kind of series: DMSO penetration into intact mouse ear monitored by multiplex SRS imaging with MCR analysis. It is filed as in vivo. The following applies: DMSO applied to intact mouse ear. The procedure:
In order to reduce ambiguity associated with MCR decomposition, a data augmentation matrix composed of repeating reference spectra, if needed, can be added to the spectral dataset D. The enhanced weight on pure reference spectra permits the MCR algorithm to selectively recover concentration profiles for corresponding Raman bands. An experiment was performed to test this. For tissue penetration data, pure DMSO spectrum and lipid spectrum were provided as initial estimations (reference spectra) for MCR analysis. A data augmentation matrix including reference spectra of DMSO and lipid was added to the spectral dataset in order to reduce ambiguity. For analysis of aqueous solutions of DMSO, a data augmentation matrix composed of reference spectra of DMSO was added to the spectral dataset in order to reduce MCR's ambiguity. A non-negativity constraint was used during the iterations.
FIGS. 10A, 10B, 11A, 11B, and 12 show experimental data of SRS imaging. Various aspects of parallel detection herein advantageously provide a speed of acquiring a spectrum at 30 μs time scale, or over 30,000 spectra per second. For imaging, this scheme avoids spectral profile distortion induced by sample movement, thus enabling observation of target molecules in a highly dynamic system. […] Every three minutes, one spectroscopic SRL image was acquired at the speed of 3 s per frame of 200×200 pixels. Importantly, although the C—H Raman spectra of DMSO and lipid are completely overlapped, spectroscopic SRS imaging, followed by employing MCR analysis as described above, permitted determining concentration maps of lipids and DMSO over time.
The scale bar in the 5-minute image in FIG. 10A is 20 μm. The arrow near the center of the 32-minute image in FIG. 10A indicates the location at which concentrations were measured for FIG. 12, discussed below.
The temporal dynamics of DMSO (circles) and lipid (squares) concentrations are shown. The curve represents fitting by a diffusion model. […]

For `C[S+](C)[O-]` [DMSO, dimethyl sulfoxide], where the note is “imaged up to 32 minutes”, the “structure of the fat cells after DMSO application” value was “remained intact”. Under “lipid-abundant layer ~50 μm beneath the skin surface, after 30 min”, the “distribution of DMSO in the adipose tissue” value is “inter-cell distribution of DMSO was observed”. Further, for the setting “lipid-abundant layer ~50 μm beneath the skin surface, in the first 5 min”, the “DMSO penetration into the adipose tissue” value is “Very small amounts”.
